# Experimental data from article PMC6581923 (Journal of Molecular Neuroscience, 2018).
# Entries after “also recorded” stand apart in the source; their conditions may differ.
# Legend:
# Format in all cases: in vivo, rat (male)
# [1] = system: retina (BCCAO-induced retinopathy); test: Retinal layer thickness / morphology after bilateral carotid artery occlusion (BCCAO), eye drops
# Description: (§1) Adult male rat litters were housed in the animal facility in individual cages in a 12 h light-dark cycle with food and water ad libitum. Animal housing, care and application of experimental procedures were in accordance with institutional guidelines under approved protocols (No: BA02/2000–26/2017, University of Pecs). Under isoflurane anesthesia, common carotid arteries were exposed on both sides through a midline incision and then ligated with a 3–0 filament. A group of animals (sham group) underwent all steps of the operating procedure except ligation of the carotid arteries. Immediately following the operation, the right eye of the animals was treated with derivatives of PACAP (PACAP-TAT /n = 17/ or VIP-TAT /n = 17/) eye drops (1 μg/drop). Dose and schedule of the eye drop treatments were based on our previous experiments (Werling et al. [2016]). In the experiment for histological analysis, the different derivatives were dissolved in benzalkonium solution for ophthalmic use (solutio ophthalmica cum benzalkonio (SOCB)). The left eye, serving as a control, was treated with vehicle containing neither PACAP-TAT nor VIP-TAT. Animals were treated for five consecutive days, twice a day with one drop of drug, under brief isoflurane anesthesia (max. 5 min).
# (§2) Fourteen days after the operation, rats (n = 10 SHAM and n = 24 BCCAO) were killed with anesthetic and the eyes were processed for histology. The eyes were removed and the retinas were solved in phosphate buffered saline (PBS), fixed in 4% paraformaldehyde dissolved in 0.1 M phosphate buffer (PB) (Sigma, Budapest, Hungary) and embedded in Durcupan ACM resin (Sigma, Budapest, Hungary). Retinas were cut at 2 μm and stained with toluidine blue dye (Sigma, Hungary). Sections were mounted in DPX medium (Sigma, Hungary) and photographs were taken with a digital CCD camera using the Spot program. Central retinal areas within 1 mm from the optic nerve were used (n = 5 measurements from one tissue block). The following parameters were measured: (i) cross-section of the retina from the outer limiting membrane (OLM) to the inner limiting membrane (ILM), (ii) the width of individual retinal layers (outer nuclear layer [ONL], outer plexiform layer [OPL], inner nuclear layer [INL], inner plexiform layer [IPL]), (iii) the number of cells/100 μm section length in the GCL, and the (iv) number of cells/[…]. Results are presented as mean ± SEM. Statistical comparisons were made using the two-way ANOVA test followed by Tukey’s post hoc analysis.
# (§3) Fig. 4 Quantification of retinal layers in SHAM+SOCB, in SHAM+PACAP-TAT, in BCCAO+SOCB, and in BCCAO+PACAP-TAT animals; the right eye was treated with PACAP-TAT eye drops, the left eye served as controls receiving only SOCB. Comparison of all retinal layers (a–e). […] Statistical significance (*p < 0.05 vs. SHAM+SOCB retinas, #p < 0.05 vs. BCCAO+SOCB retinas) was calculated by two-way ANOVA followed by Fischer’s post hoc test
# as §3, with “6” for “4”, “SHAM+VIP-TAT,” for “SHAM+PACAP-TAT,”, “BCCAO+VIP-TAT” for “BCCAO+PACAP-TAT”, “VIP-TAT” for “PACAP-TAT”, “control” for “controls”
# [2] = system: retina (BCCAO-induced retinopathy); test: Number of cells in retinal nuclear layers and GCL after BCCAO, eye drops; settings: eye drops 1 μg/drop, twice a day, five days, vs BCCAO-induced degenerated retinas, 14 days
# Description: as §1, §2
# (§4) Fig. 5 Quantification of the number of cells/100 μm GCL length (a), the number of cells/500 μm^2 ONL (b) and INL (c) areas in SHAM+SOCB, in SHAM+PACAP-TAT, in BCCAO+SOCB, and in BCCAO+PACAP-TAT animals. Statistical significance (*p < 0.05 vs. SHAM+SOCB retinas, #p < 0.05 vs. BCCAO+SOCB retinas) was calculated by two-way ANOVA followed by Bonferroni’s post hoc test
# as §4, with “Fig. 7” for “Fig. 5”, “in SHAM+VIP-TAT,” for “in SHAM+PACAP-TAT,”, “in BCCAO+VIP-TAT” for “in BCCAO+PACAP-TAT”
# [3] = Efficiency of Traversing Eye to Retina (EtE) of FITC labeled peptides given in eye drops
# Description: In order to trace the drugs, peptides were labeled with fluorescein isothiocyanate (FITC) using a FITC Protein Labeling Kit from ChangRu Biotech Ltd. (Guangzhou, China) according to the manufacturer’s protocol. After the labeling reaction, gel filtration was used to remove the free FITC. In order to determine the amount of the residual free FITC, the peptides were submitted to ultrafiltration using Amicon Ultra – 0.5 mL (Millipore, USA) with a molecular sieve of 2000 Da. After centrifugation (1000×g, 10 min) the peptide was subjected to fluorescence measurements performed with the multi-wavelength scanner Victor 3 (GE, USA) at the excitation of 495 nm and the emission of 520 nm. Protein concentrations were determined using the K4000 Bradford Protein Quantification Kit (Innovative, Guangzhou, China). The labeling efficiency was calculated using the following formula: label efficiency (LE) = fluorescence value (FV)/peptide mass (mol) (PM), representing the fluorescence intensity (AU) per mol of peptide (mol).
# Male rats with body weight from 160 to 180 g were purchased from the Medical and Experimental Animal Center (Guangdong, China). Rats were randomly assigned to one of the experimental groups (7 rats per group) and subjected to eye drops with FITC labeled peptides (100 nmol/kg) and PBS as control. Rats were sacrificed by anesthesia 2 h after the eye drop administration and the retina was separated, weighed, washed three times with PBS and divided into two parts. One part was prepared on the glass slide with glycerin and subjected to fluorescence microscopic observation of FITC with 495 nm excitation/520 nm emission. All images, focused on the left upper regions of the retina, were taken with 500 ms exposure time. The other part of the retina was subjected to grinding and ultrasonication in PBS at a concentration of 100 mg weight tissue per milliliter of PBS. The supernatant was collected by centrifugation and the fluorescence intensity in the supernatant (100 uL) was determined. The valid fluorescence intensity (FI) for each sample treated with FITC labeled peptide was corrected by subtracting the fluorescence value of the sample treated with PBS, which was used as a blank background. The Efficiency of Traversing Eye to Retina (EtE) was expressed as the percentages of the FITC labeled peptide mass in the retina to the total FITC labeled peptide mass. The EtE was calculated using the following formula: EtE = tFI/LE/PW × 100% (tFI presents the fluorescence intensity of retina (arbitration unit, AU); LE presents the label efficiency of each peptide which has been determined above; PW presents the peptide mass (mole)).
# Fig. 1 The efficiency of FITC labeled PACAP/PACAP-TAT (a, b) and VIP/VIP-TAT (c, d) traversing to retina given in eye drops. The retina was separated 2 h after the eye drops and submitted to the fluorescence microscopic observation of FITC fluorescence signal (A, C) and the calculation of Efficiency of Traversing Eye to Retina (EtE) (b, d). The data are means ± SEM of four experiments
smiles,measurement,setting,value
CC[C@H](C)[C@H](NC(=O)CNC(=O)[C@H](CC(=O)O)NC(=O)[C@H](CO)NC(=O)[C@@H](N)Cc1c[nH]cn1)C(=O)N[C@@H](Cc1ccccc1)C(=O)N[C@H](C(=O)N[C@@H](CC(=O)O)C(=O)N[C@@H](CO)C(=O)N[C@@H](Cc1ccc(O)cc1)C(=O)N[C@@H](CO)C(=O)N[C@@H](CCCNC(=N)N)C(=O)N[C@@H](Cc1ccc(O)cc1)C(=O)N[C@@H](CCCNC(=N)N)C(=O)N[C@@H](CCCCN)C(=O)N[C@@H](CCC(N)=O)C(=O)N[C@@H](CCSC)C(=O)N[C@@H](C)C(=O)N[C@H](C(=O)N[C@@H](CCCCN)C(=O)N[C@@H](CCCCN)C(=O)N[C@@H](Cc1ccc(O)cc1)C(=O)N[C@@H](CC(C)C)C(=O)N[C@@H](C)C(=O)N[C@@H](C)C(=O)N[C@H](C(=O)N[C@@H](CC(C)C)C(=O)NCC(=O)N[C@@H](CCCCN)C(=O)N[C@@H](CCCNC(=N)N)C(=O)N[C@@H](Cc1ccc(O)cc1)C(=O)N[C@@H](CCCCN)C(=O)N[C@@H](CCC(N)=O)C(=O)N[C@@H](CCCNC(=N)N)C(=O)N[C@H](C(=O)N[C@@H](CCCCN)C(=O)N[C@@H](CC(N)=O)C(=O)N[C@@H](CCCCN)C(=O)NCC(=O)N[C@@H](CCCNC(=N)N)C(=O)N[C@@H](CCCCN)C(=O)N[C@@H](CCCCN)C(=O)N[C@@H](CCCNC(=N)N)C(=O)N[C@@H](CCCNC(=N)N)C(=O)N[C@@H](CCC(N)=O)C(=O)N[C@@H](CCCNC(=N)N)C(=O)N[C@@H](CCCNC(=N)N)C(=O)N[C@@H](CCCNC(=N)N)C(=O)N1CCC[C@H]1C(=O)N[C@@H](CCC(N)=O)C(=O)O)C(C)C)C(C)C)C(C)C)[C@@H](C)O [PACAP-TAT],OPL preservation after BCCAO,"[1]; BCCAO + eye drops, OPL almost disappeared in several BCCAO-induced degenerated retinas",preserved
same,Retinal degeneration in light microphotographs after BCCAO,"[1]; BCCAO + eye drops, toluidine blue sections, 14 days, severe degeneration in BCCAO+SOCB",only mild degeneration
same,"Retinoprotective efficacy of eye drops, overall / compared with untagged peptide","[1]; BCCAO, topical eye drops in SOCB",attenuate ischemic retinal degeneration via the PAC1 receptor; also recorded: did not prove to have significantly higher retinoprotective efficacy than untagged PACAP
same,"Retinal layer thickness (OLM-ILM, ONL, OPL, INL, IPL) after BCCAO","[1]; BCCAO, eye drops 1 μg/drop, twice a day, five consecutive days, in SOCB, right eye, left eye SOCB control, 14 days, p < 0.05 vs. BCCAO+SOCB",significant amelioration in all retinal layers; also recorded: improved the structure of all the retinal layers
same,Change of retinal thickness in sham animals,"[1]; eye drops alone in sham animals, 1 μg/drop, twice a day, five consecutive days, in SOCB, histology 14 days after operation",did not cause any changes in the retinal thickness
same,Number of cells in the GCL/100 μm after BCCAO,[2],significantly higher compared to the BCCAO-induced degenerated retinas
same,Number of cells in the INL/500 μm2 after BCCAO,[2],significantly higher compared to the BCCAO-induced degenerated retinas
same,Number of cells in the ONL/500 μm2 after BCCAO,[2],significantly higher compared to the BCCAO-induced degenerated retinas
same,Efficiency of Traversing Eye to Retina (EtE),"[3]; FITC labeled peptides, eye drops 100 nmol/kg, retina separated 2 h after, fluorescence 495 nm excitation/520 nm emission, % of FITC labeled peptide mass in retina to total, means ± SEM of four experiments (7 rats per group)",3.66 ± 0.67%
same,EtE relative to the untagged peptide,"[3]; PACAP-TAT/VIP-TAT vs PACAP/VIP, respectively, eye drops 100 nmol/kg, 2 h",about three-fold that of PACAP/VIP
same,FITC fluorescence density per area unit in the retina,"[3]; fluorescence microscopy of retina 2 h after eye drops of FITC labeled peptides (100 nmol/kg), vs PACAP/VIP",much higher than in retinas treated with eye drops of PACAP/VIP
